US8017769B2, “Colorless water-soluble organic luminophores and intermediates thereof” (priority 2005, dated 2011)

Columns and labels:
[1] = result in words
[2] = colourless aqueous solution

SMILES	solubility in water [1]	fluorescence wavelength maximum [2]
O=S(=O)([O-])c1cccc(Nc2nc(Cl)nc(Nc3ccc(S(=O)(=O)[O-])cc3-c3nc4ccccc4s3)n2)c1.[Na+].[Na+] [Compound III, Disodium salt of 4-[4-Chloro-6-(3-sulfophenylamino)-1,3,5-triazin-2-ylamino]-3-(benzo[d]thiazol-2-yl)benzenesulfonic acid]	highly soluble in water	550 nm
O=S(=O)([O-])c1ccc(Nc2nc(Cl)nc(Nc3ccc(S(=O)(=O)[O-])cc3-c3nc4ccccc4s3)n2)c(-c2nc3ccccc3s2)c1.[Na+].[Na+] [Compound V, Disodium salt of 4-{4-[2-(benzo[d]thiazol-2-yl)-4-sulfophenylamino]-6-chloro-1,3,5-triazin-2-ylamino}-3-(benzo[d]thiazol-2-yl)benzenesulfonic acid]	poorly soluble in water	–
O=C([O-])CN(CC(=O)[O-])c1nc(Nc2ccc(S(=O)(=O)[O-])cc2-c2nc3ccccc3s2)nc(N(CC(=O)[O-])CC(=O)[O-])n1.[K+].[K+].[K+].[K+].[K+] [Compound IV, Pentapotassium salt of 4-{4,6-bis-[di(carboxymethyl)amino]-1,3,5-triazin-2-ylamino}-3-(benzo[d]thiazol-2-yl)benzenesulfonic acid]	highly soluble in water	570 nm
O=C([O-])CNc1nc(Cl)nc(Nc2ccc(S(=O)(=O)[O-])cc2-c2nc3ccccc3s2)n1.[Na+].[Na+] [Compound VIII, Disodium salt of 4-(4-carboxymethylamino-6-chloro-1,3,5-triazin-2-ylamino)-3-(benzo[d]thiazol-2-yl)benzenesulfonic acid]	highly soluble in water	548 nm
O=S(=O)([O-])c1ccc(Nc2nc(Nc3ccc(S(=O)(=O)[O-])cc3-c3nc4ccccc4s3)nc(N3CCOCC3)n2)c(-c2nc3ccccc3s2)c1.[Na+].[Na+] [Compound VI, Disodium salt of 4-{4-[2-(benzo[d]thiazol-2-yl)-4-sulfophenylamino]-6-morpholino-1,3,5-triazin-2-ylamino}-3-(benzo[d]thiazol-2-yl)benzenesulfonic acid]	highly soluble in water	582 nm
O=C([O-])CNc1nc(NCC(=O)[O-])nc(Nc2ccc(S(=O)(=O)[O-])cc2-c2nc3ccccc3s2)n1.[Na+].[Na+].[Na+] [Compound X, Trisodium salt of 4-[4,6-bis(carboxymethylamino)-1,3,5-triazin-2-ylamino]-3-(benzo[d]thiazol-2-yl)benzenesulfonic acid]	highly soluble in water	565 nm
O=S(=O)([O-])c1ccc(Nc2nc(Cl)nc(Cl)n2)c(-c2nc3ccccc3s2)c1.[Na+] [Compound II, Sodium salt of 4-(4,6-dichloro-1,3,5-triazin-2-ylamino)-3-(benzo[d]thiazol-2-yl)benzenesulfonic acid]	not soluble in water	–
O=C(Nc1ccc(S(=O)(=O)[O-])cc1-c1nc2ccccc2s1)c1ccccc1S(=O)(=O)[O-].[Na+].[Na+] [Compound VII, Disodium salt of 4-(2-sulfobenzoylamino)-3-(benzoldlthiazol-2-yl)benzenesulfonic acid]	highly soluble in water	547 nm
N.N.N.O=C(O)CN(CC(=O)O)c1nc(Cl)nc(Nc2ccc(S(=O)(=O)O)cc2-c2nc3ccccc3o2)n1 [Compound XIV, Triammonium salt of 4-{4-chloro-6-[di(carboxymethyl)amino]-1,3,5-triazin-2-ylamino}-3-(benzo[d]oxazol-2-yl)benzenesulfonic acid]	highly soluble in water	517 mm
O=S(=O)([O-])c1cccc(Nc2nc(Cl)nc(Nc3ccc(S(=O)(=O)[O-])cc3-c3nc4ccccc4o3)n2)c1.[Na+].[Na+] [Compound XIII, Disodium salt of 4-[4-chloro-6-(3-sulfophenylamino)-1,3,5-triazin-2-ylamino]-3-(benzo[d]oxazol-2-yl)benzenesulfonic acid]	highly soluble in water	517 nm
O=S(=O)([O-])c1cccc(Nc2nc(Nc3ccc(S(=O)(=O)[O-])cc3-c3nc4ccccc4s3)nc(N3CCOCC3)n2)c1.[Na+].[Na+] [Compound IX, Disodium salt of 4-[4-(3-sulfophenylamino)-6-morpholino-1,3,5-triazin-2-ylamino]-3-(benzo[d]thiazol-2-yl)benzenesulfonic acid]	highly soluble in water	565 nm
